Data on three compounds can be found in publication PMC12145052 (Acta Pharmaceutica Sinica. B, 2025).

Broadly, the MIC is the least concentration at which growth counts as inhibited. A high value points to a less susceptible organism. For orientation: pKd means the Kd on a negative log10 scale, so that one unit is a factor of ten.

pKd: −log10 of the molar value. ≈ marks a conversion by molar mass, not a printed value. Where a SMILES comes first, the peptide text is derived from it. [ ]: non-standard residue; d: D form. Phe(ol) = N[C@H](CO)Cc1ccccc1; Aib = CC(C)(N)C(=O)O

For experiment [1], the system named is S. aureus ATCC 29213. In words: Antibacterial test, broth microdilution. The conditions noted are these: Fig. S5. It is filed as cell-based, Staphylococcus aureus.
For experiment [2] the following is noted: read-out: KD with PG; cited from earlier work.
Experiment [3] concerns MRSA 1530 (cfr). In words: Antibacterial test, broth microdilution. The experiment is classed as cell-based, methicillin-resistant Staphylococcus aureus. To be noted: Staphylococcus aureus. In general terms: Broth dilution looks for growth in wells or tubes with falling amounts of substance.
In experiment [4] the test system is MRSA T144. The experiment in a line: Galleria mellonella infection model. It is filed as in vivo. The conditions noted are these: MRSA T144 5.0 × 10^6 CFUs; 10 mg/kg at 1 h post-infection; n = 7.
Experiment [5] deals with MRSA T144. In words: Antibacterial test, broth microdilution. The experiment is classed as cell-based, methicillin-resistant Staphylococcus aureus. The conditions noted are these: Staphylococcus aureus.
Experiment [6] concerns S. simulans 4. The experiment in a line: Antibacterial test, broth microdilution. The experiment is classed as cell-based. To be noted: Staphylococcus simulans.

With `CC(=O)NC(C)(C)C(=O)N1CCC[C@H]1C(=O)NC(C)(C)C(=O)N[C@@H](C)C(=O)NC(C)(C)C(=O)N[C@@H](C)C(=O)N[C@@H](CCC(N)=O)C(=O)NC(C)(C)C(=O)N[C@H](C(=O)NC(C)(C)C(=O)NCC(=O)N[C@@H](CC(C)C)C(=O)NC(C)(C)C(=O)N1CCC[C@H]1C(=O)N[C@H](C(=O)NC(C)(C)C(=O)NC(C)(C)C(=O)N[C@@H](CCC(=O)O)C(=O)N[C@@H](CCC(N)=O)C(=O)N[C@H](CO)Cc1ccccc1)C(C)C)C(C)C` [alamethicin] (Ac-[Aib]P[Aib]A[Aib]AQ[Aib]V[Aib]GL[Aib]PV[Aib][Aib]EQ[Phe(ol)]; N-terminus assumed), the MIC in experiment [1] was 16 µg/mL (≈ 8.15 µM).

For the compound daptomycin, the pKd in experiment [2] is 5.51.

For `CN[C@H](CC(C)C)C(=O)N[C@H]1C(=O)N[C@@H](CC(N)=O)C(=O)N[C@H]2C(=O)N[C@H]3C(=O)N[C@H](C(=O)N[C@H](C(=O)O)c4cc(O)cc(O)c4-c4cc3ccc4O)[C@H](O)c3ccc(c(Cl)c3)Oc3cc2cc(c3O[C@@H]2O[C@H](CO)[C@@H](O)[C@H](O)[C@H]2O[C@H]2C[C@](C)(N)[C@H](O)[C@H](C)O2)Oc2ccc(cc2Cl)[C@H]1O` [Vancomycin], the MIC in experiment [3], in experiment [5] and in experiment [6] was 1 µg/mL (≈ 0.69 µM) in each case. Further, the “Bacterial loads in G. mellonella larvae” value in experiment [4] is recorded as “decreased bacterial loads”.
